In US4559323A, “A41030 Antibiotics” (Eli Lilly and Company, priority 1984, dated 1985) one finds Zone diameter and MIC data, which are given here for 2 compounds.

The structures appear in SMILES notation. Values after ≈ are worked out from the molar mass of the structure shown.

Format in all cases: cell-based
Experiment [1] deals with Streptococcus pneumoniae Park I. Nature of the experiment: Disc-plate sensitivity procedure.
The test system of experiment [2] is Streptococcus pyogenes C203. Nature of the experiment: Disc-plate sensitivity procedure.
In the next experiment the test system is Streptococcus faecalis. Put plainly: Agar-dilution MIC. The conditions noted are these: Table 7; Streptococcus faecalis X66.
The test system of experiment [3] is Streptococcus sp. (Group D) 9960. Put plainly: Disc-plate sensitivity procedure.
The next experiment has as its system Klebsiella pneumoniae. Put plainly: Agar-dilution MIC. The conditions noted are these: Table 17; 24 hours; Klebsiella pneumoniae X68.

The term MIC denotes the lowest concentration that inhibits growth of the organism. Consider `NC1C(=O)NC2Cc3ccc(c(Cl)c3)Oc3cc4cc(c3O)Oc3ccc(cc3Cl)C(O)C3NC(=O)C(NC(=O)C4NC(=O)C(NC2=O)c2cc(O)cc(c2)Oc2cc1ccc2O)c1cc(Cl)c(O)c(c1)-c1c(O)cc(O)cc1C(C(=O)O)NC3=O` (centres unmarked) [A41030 factor A], for which the Zone diameter worked out at 15.0 mm in experiment [1] (Table 8, 10 μg./disc); 17.0 mm in experiment [1] (Table 8, 100 μg./disc); 12.0 mm in experiment [2] (Table 8, 10 μg./disc); 15.0 mm in experiment [2] (Table 8, 100 μg./disc); 16.4 mm in experiment [3] (Table 8, 10 μg./disc); 20.5 mm in experiment [3] (Table 8, 100 μg./disc). The compound further yielded an MIC against Streptococcus faecalis of less than 0.5 µg/mL.
Compound `N[C@H]1C(=O)N[C@@H]2Cc3ccc(c(Cl)c3)Oc3cc4cc(c3O)Oc3ccc(cc3Cl)[C@@H](O)[C@@H]3NC(=O)C(NC(=O)[C@@H]4NC(=O)[C@@H](NC2=O)c2cc(O)cc(c2)Oc2cc1ccc2O)c1ccc(O)c(c1)-c1c(O)cc(O)cc1[C@@H](C(=O)O)NC3=O` [A41030 factor B] came in with an MIC against Klebsiella pneumoniae of 128 µg/mL (≈ 107 µM).
